Experimental data: US4659726A, “Novel 4,5-Bis (4-methoxyphenyl)-2-(pyrrol-2-yl) thiazoles and pharmaceutical composition containing the same” (Kanebo, Ltd., priority 1984, dated 1987)
Structures can show the parent of a compound that is named as a salt. Where two headings read alike, the source gives them in different places.

Columns and labels:
[1] = tested on: Platelet aggregation (arachidonate); test: Platelet aggregation inhibitory activity, ex vivo after oral administration to guinea pigs, sodium arachidonate as aggregating agent; type: in vivo, Hartley strain male guinea pigs; settings: Cavia porcellus, read-out: Platelet aggregation inhibitory activity Arachidonate ED50
Method: (§1) Hartley strain male guinea pigs (weighing 300-350 g, one group: three animals) were fasted overnight, and to the animals were orally administered a solution or suspension of the test compounds in corn oil-10% arabic gum. […] The citrated blood thus obtained was centrifuged at 1,700 rpm for 10 minutes, and a platelet-rich plasma (PRP) was obtained from the supernatant. After isolating PRP, the remaining blood was further centrifuged at 3,000 rpm for 10 minutes, and a platelet-poor plasma (PPP) was obtained from the supernatant.
(§2) The PRP (450 μl) thus obtained was incubated at 37° C. for 3 minutes, and thereto was added 1.0 mM sodium arachidonate (50 μl) as an aggregating agent, and then the platelet aggregation thereof was measured with Platelet Aggregation Profiler® (Model PAP-3, manufactured by Bio Data Corp.) while using the PPP obtained above as a blank. As a control, as to animals to which no test compound was administered, the platelet aggregation rate was measured likewise.
(§3) The platelet aggregation inhibitory rate was calculated by the following equation. [formula]

[2] = tested on: Platelet aggregation (collagen); test: Platelet aggregation inhibitory activity, ex vivo after oral administration to guinea pigs, collagen as aggregating agent; type: in vivo, Hartley strain male guinea pigs; settings: Cavia porcellus, read-out: Platelet aggregation inhibitory activity Collagen ED50
Method: as §1, §2, §3
Moreover, the above method was repeated except that 100 μg/ml collagen suspension (50 μl) was used as an aggregating agent instead of sodium arachidonate.

in vivo = settings: mouse, oral, ddy male mice, deaths counted at 10 days, Weil method, read-out: Acute toxicity LD50
Description: ddy male mice (weighing 18-23 g, one group: 5 animals) were fasted overnight, and thereto was orally administered a suspension of the test compounds in 1% arabic gum solution.

[3] = oral, guinea pig, blood collected after 3 hours, 1.0 mM sodium arachidonate (50 μl), 50% inhibitory rate
[4] = oral, guinea pig, blood collected after 3 hours, 100 μg/ml collagen suspension (50 μl), 50% inhibitory rate

| SMILES | ED50 ([1]; po, 3 h) | ED50 ([2]; po, 3 h) | LD50 at 240 h (in vivo) | ED50 [1, 3] | ED50 [2, 4] |
| --- | --- | --- | --- | --- | --- |
| CC(=O)Oc1ccccc1C(=O)O [Aspirin, reference compound] | 38.2 mg/kg | 58.9 mg/kg | 1060 mg/kg |  |  |
| COc1ccc(-c2nc(C(F)(F)F)sc2-c2ccc(OC)cc2)cc1 [Compd. A, 4,5-bis(4-methoxyphenyl)-2-trifluoromethylthiazole, reference compound] |  |  | > 3000 mg/kg | 0.54 mg/kg | 1.29 mg/kg |
| COc1ccc(-c2nc(-c3ccc(F)cc3)sc2-c2ccc(OC)cc2)cc1 [Compd. B, 4,5-bis(4-methoxyphenyl)-2-(4-fluorophenyl)thiazole, reference compound] |  |  | > 3000 mg/kg | 1.24 mg/kg | 1.2 mg/kg |
| COc1ccc(-c2nc(-c3cccn3C)[nH]c2-c2ccc(OC)cc2)cc1 [Compd. C, 4,5-bis(4-methoxyphenyl)-2-(1-methylpyrrol-2-yl)imidazole, reference compound] |  |  | > 3000 mg/kg | 1.21 mg/kg | 2.51 mg/kg |
| CCn1cccc1-c1nc(-c2ccc(OC)cc2)c(-c2ccc(OC)cc2)s1 [Ex. 1, 4,5-Bis(4-methoxyphenyl)-2-(1-ethylpyrrol-2-yl)-thiazole] |  |  | > 3000 mg/kg | 0.47 mg/kg | 0.91 mg/kg |
| COc1ccc(-c2nc(-c3cccn3C(C)C)sc2-c2ccc(OC)cc2)cc1 [Ex. 2, 4,5-Bis(4-methoxyphenyl)-2-(1-isopropylpyrrol-2-yl)thiazole] |  |  | > 3000 mg/kg | 0.29 mg/kg | 0.63 mg/kg |
| CCCn1cccc1-c1nc(-c2ccc(OC)cc2)c(-c2ccc(OC)cc2)s1 [Ex. 3, 4,5-Bis(4-methoxyphenyl)-2-(1-n-propylpyrrol-2-yl)thiazole] |  |  | > 3000 mg/kg | 0.32 mg/kg | 0.52 mg/kg |
| COc1ccc(-c2nc(-c3cccn3CC(C)C)sc2-c2ccc(OC)cc2)cc1 [Ex. 4, 4,5-Bis(4-methoxyphenyl)-2-(1-isobutylpyrrol-2-yl)thiazole] |  |  | > 3000 mg/kg | 0.41 mg/kg | 0.78 mg/kg |
| C=CCn1cccc1-c1nc(-c2ccc(OC)cc2)c(-c2ccc(OC)cc2)s1 [Ex. 5, 4,5-Bis(4-methoxyphenyl)-2-(1-allylpyrrol-2-yl)-thiazole] |  |  | > 3000 mg/kg | 0.4 mg/kg | 0.55 mg/kg |
| C#CCn1cccc1-c1nc(-c2ccc(OC)cc2)c(-c2ccc(OC)cc2)s1 [Ex. 6, 4,5-Bis(4-methoxyphenyl)-2-(1-propargylpyrrol-2-yl)thiazole] |  |  | > 3000 mg/kg | 0.22 mg/kg | 0.92 mg/kg |
| COc1ccc(-c2nc(-c3cccn3CC(F)(F)F)sc2-c2ccc(OC)cc2)cc1 [Ex. 7, 4,5-Bis(4-methoxyphenyl)-2-[1-(2,2,2-trifluoroethyl)pyrrol-2-yl]thiazole] |  |  | > 3000 mg/kg | 0.47 mg/kg | 0.51 mg/kg |
| COC(=O)Cn1cccc1-c1nc(-c2ccc(OC)cc2)c(-c2ccc(OC)cc2)s1 [Ex. 13, methyl 2-[4,5-bis(4-methoxyphenyl)thiazol-2-yl]pyrrole-1-acetate] |  |  | > 3000 mg/kg | 0.26 mg/kg | 0.89 mg/kg |
| CCOC(=O)Cn1cccc1-c1nc(-c2ccc(OC)cc2)c(-c2ccc(OC)cc2)s1 [Ex. 14, ethyl 2-[4,5-bis(4-methoxyphenyl)thiazol-2-yl]pyrrole-1-acetate] |  |  | > 3000 mg/kg | 0.088 mg/kg | 0.19 mg/kg |
| CCCOC(=O)Cn1cccc1-c1nc(-c2ccc(OC)cc2)c(-c2ccc(OC)cc2)s1 [Ex. 15, n-Propyl 2-[4,5-bis(4-methoxyphenyl)thiazol-2-yl]-pyrrole-1-acetate] |  |  | > 3000 mg/kg | 0.072 mg/kg | 0.11 mg/kg |
| COc1ccc(-c2nc(-c3cccn3CC(=O)OC(C)C)sc2-c2ccc(OC)cc2)cc1 [Ex. 16, isopropyl 2-[4,5-bis(4-methoxyphenyl)thiazol-2-yl]pyrrole-1-acetate] |  |  | > 3000 mg/kg | 0.061 mg/kg | 0.11 mg/kg |
| CCCCOC(=O)Cn1cccc1-c1nc(-c2ccc(OC)cc2)c(-c2ccc(OC)cc2)s1 [Ex. 17, n-Butyl 2-[4,5-bis(4-methoxyphenyl)thiazol-2-yl]-pyrrole-1-acetate] |  |  | > 3000 mg/kg | 0.15 mg/kg | 0.19 mg/kg |
| COc1ccc(-c2nc(-c3cccn3CC(=O)OCC(C)C)sc2-c2ccc(OC)cc2)cc1 [Ex. 18, Isobutyl 2-[4,5-bis(4-methoxyphenyl)thiazol-2-yl]-pyrrole-1-acetate] |  |  | > 3000 mg/kg | 0.072 mg/kg | 0.12 mg/kg |

| SMILES | ED50 ([1]; po, 3 h) | ED50 ([2]; po, 3 h) | LD50 at 240 h (in vivo) | ED50 [1, 3] | ED50 [2, 4] |
| --- | --- | --- | --- | --- | --- |
| CCC(C)OC(=O)Cn1cccc1-c1nc(-c2ccc(OC)cc2)c(-c2ccc(OC)cc2)s1 (centres unmarked) [Ex. 19, sec-Butyl 2-[4,5-bis(4-methoxyphenyl)thiazol-2-yl]pyrrole-1-acetate] |  |  | > 3000 mg/kg | 0.12 mg/kg | 0.11 mg/kg |
| CCCCCOC(=O)Cn1cccc1-c1nc(-c2ccc(OC)cc2)c(-c2ccc(OC)cc2)s1 [Ex. 20, n-pentyl 2-[4,5-bis(4-methoxyphenyl)thiazol-2-yl]pyrrole-1-acetate] |  |  | > 3000 mg/kg | 0.28 mg/kg | 0.49 mg/kg |
| COc1ccc(-c2nc(-c3cccn3CC(=O)OCCC(C)C)sc2-c2ccc(OC)cc2)cc1 [Ex. 21, Isopentyl 2-[4,5-bis(4-methoxyphenyl)thiazol-2-yl]pyrrole-1-acetate] |  |  | > 3000 mg/kg | 0.12 mg/kg | 0.22 mg/kg |
| COc1ccc(-c2nc(-c3cccn3CC(=O)OCC(C)(C)C)sc2-c2ccc(OC)cc2)cc1 [Ex. 22, Neopentyl 2-[4,5-bis(4-methoxyphenyl)thiazol-2-yl]pyrrole-1-acetate] |  |  | > 3000 mg/kg | 0.11 mg/kg | 0.4 mg/kg |
| CCC(C)COC(=O)Cn1cccc1-c1nc(-c2ccc(OC)cc2)c(-c2ccc(OC)cc2)s1 (centres unmarked) [Ex. 23, 2-methyl-1-butyl 2-[4,5-bis(4-methoxyphenyl)thiazol-2-yl]pyrrole-1-acetate] |  |  | > 3000 mg/kg | 0.073 mg/kg | 0.14 mg/kg |
| CCCC(C)OC(=O)Cn1cccc1-c1nc(-c2ccc(OC)cc2)c(-c2ccc(OC)cc2)s1 (centres unmarked) [Ex. 24, 2-pentyl 2-[4,5-bis(4-methoxyphenyl)thiazol-2-yl]pyrrole-1-acetate] |  |  | > 3000 mg/kg | 0.12 mg/kg | 0.22 mg/kg |
| CCC(CC)OC(=O)Cn1cccc1-c1nc(-c2ccc(OC)cc2)c(-c2ccc(OC)cc2)s1 [Ex. 25, 3-pentyl 2-[4,5-bis(4-methoxyphenyl)thiazol-2-yl]pyrrole-1-acetate] |  |  | > 3000 mg/kg | 0.12 mg/kg | 0.34 mg/kg |
| COc1ccc(-c2nc(-c3cccn3CC(=O)OC(C)C(C)C)sc2-c2ccc(OC)cc2)cc1 (centres unmarked) [Ex. 26, 3-methyl-2-butyl 2-[4,5-bis(4-methoxyphenyl)thiazol-2-yl]pyrrole-1-acetate] |  |  | > 3000 mg/kg | 0.26 mg/kg | 0.34 mg/kg |
| CCCCCCOC(=O)Cn1cccc1-c1nc(-c2ccc(OC)cc2)c(-c2ccc(OC)cc2)s1 [Ex. 27, n-hexyl 2-[4,5-bis(4-methoxyphenyl)thiazol-2-yl]pyrrole-1-acetate] |  |  | > 3000 mg/kg | 0.21 mg/kg | 0.22 mg/kg |
| CCCCCCCCOC(=O)Cn1cccc1-c1nc(-c2ccc(OC)cc2)c(-c2ccc(OC)cc2)s1 [Ex. 28, n-octyl 2-[4,5-bis(4-methoxyphenyl)thiazol-2-yl]pyrrole-1-acetate] |  |  | > 3000 mg/kg | 0.39 mg/kg | 0.44 mg/kg |
| C=CCOC(=O)Cn1cccc1-c1nc(-c2ccc(OC)cc2)c(-c2ccc(OC)cc2)s1 [Ex. 29, allyl 2-[4,5-bis(4-methoxyphenyl)thiazol-2-yl]pyrrole-1-acetate] |  |  | > 3000 mg/kg | 0.047 mg/kg | 0.11 mg/kg |
| C#CCOC(=O)Cn1cccc1-c1nc(-c2ccc(OC)cc2)c(-c2ccc(OC)cc2)s1 [Ex. 30, Propargyl 2-[4,5-bis(4-methoxyphenyl)thiazol-2-yl]pyrrole-1-acetate] |  |  | > 3000 mg/kg | 0.039 mg/kg | 0.068 mg/kg |
| COc1ccc(-c2nc(-c3cccn3CC(=O)OCc3ccccc3)sc2-c2ccc(OC)cc2)cc1 [Ex. 31, benzyl 2-[4,5-bis(4-methoxyphenyl)thiazol-2-yl]pyrrole-1-acetate] |  |  | > 3000 mg/kg | 0.11 mg/kg | 0.16 mg/kg |
| CCOCn1cccc1-c1nc(-c2ccc(OC)cc2)c(-c2ccc(OC)cc2)s1 [Ex. 36, 4,5-Bis(4-methoxyphenyl)-2-(1-ethoxymethylpyrrol-2-yl)thiazole] |  |  | > 3000 mg/kg | 0.45 mg/kg | 0.98 mg/kg |
| CCCOCn1cccc1-c1nc(-c2ccc(OC)cc2)c(-c2ccc(OC)cc2)s1 [Ex. 37, 4,5-Bis(4-methoxyphenyl)-2-(1-n-propoxymethylpyrrol-2-yl)thiazole] |  |  | > 3000 mg/kg | 0.49 mg/kg | 0.61 mg/kg |
| Clc1ccccc1CN1CCc2sccc2C1 [Ticlopidine.HCl, Ticlopidine hydrochloride, reference compound] |  |  |  | > 300 mg/kg | 300 mg/kg |
